The text below walks through data of US20080081039A1, “Inorganic Selenium For Treatment Of Cancer” (priority 2004, published 2008).

In one assay the test system is PC-3 cells. To be noted: 0.25 mM, 54 hours. How it is done: BrdU Incorporation assays and immunofluorescence were carried out by plating 2.5×10^3 PC-3 cells and allowing them to attach overnight. […] Cells were incubated for a further 16 hours, then washed 3× in PBS and fixed in 4% PFA for 10 minutes at room temperature.
Mouse monoclonal anti-BrdU and antibodies were used as the primary antibodies and anti-mouse 488 Alexa, as the secondary antibodies. The percentage of cells incorporating BrdU was determined by counting the number of green staining nuclei per number of DAPI positive cells. 100 DAPI positive cells were counted per coverslip and the experiment performed in triplicate.

For assay [1], the system named is androgen independent CSS LNCaP cells. How it is done:
5×10^4 human prostate cancer androgen independent CSS LNCaP cells were seeded in a 6-well dish and 8 hours later were treated with either 50 μM selenate or not (control).
The parental androgen-sensitive LNCaP cell line was obtained from the American Type Culture Collection (Manassas, Va., USA) and routinely cultured in […] (Invitrogen) supplemented with 10% foetal calf serum and 1% antibiotic/antimycotic mixture (Invitrogen). Cells were maintained at 37° C. in 5% CO2. To select androgen independent LNCaP cells LNCaPs were cultured in […] (Invitrogen) in 5% Charcoal stripped serum (CSS) (Invitrogen) which has removed all detectable traces of testosterone, for 6-8 weeks and obtained LNCaP cell lines which were now able to freely proliferate in the absence of testosterone. These cells are referred to as CSS LNCaPs.
Between 5×10^4 (FIGS. 1-2) and 1×10^5 LNCaP, CSS LNCaP or Q293 cells were allowed to attach overnight. […] Supernatants and cells were then harvested, combined and viable cells assessed by Trypan Blue exclusion assay. Experiments were performed in triplicate.

Molecules are shown by their SMILES. Read-outs that look alike come from different tables or passages of the source.

Take `O=[Se](=O)(O)O` [sodium selenate]: in the assay with PC-3 cells, the “G1/S progression (BrdU/FrdU positive nuclei)” value is “severely impeded”. Besides, the “CSS LNCaP cell proliferation” value is “synergizes with androgen ablation to markedly reduce” in assay [1] (5 μM, 9 days, absence of androgen (charcoal stripped serum)) and “synergizes with androgen ablation to reduce” in assay [1] (50 μM, 72 hours, presence or absence of androgen). Besides, the “androgen independent CSS LNCaP cell proliferation” value in assay [1] (5 μM, 9 days, presence of testosterone (normal serum)) is given as “markedly reduces”. In addition, the “sensitivity of androgen independent cells versus parental LNCaP cells” value in assay [1] (50 μM, 72 hours) is listed as “even more sensitive”.
